Data as given in ChEMBL document CHEMBL1201862, “PubChem BioAssay data set” (2004).
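Assay format: 96-well plates, 48-hour exposure. GI50 marks 50% less growth.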 Active and inactive are the calls of the source. Rule as the data show it: active = GI50 up to about 1.1 µM and inactive = higher.

Legend:
Assay in all cases: NCI tumour cell line growth inhibition, 48 h
[1] = system: NCI-H226
[2] = system: NCI-H522
[3] = system: SK-MEL-28
[4] = system: NCI/ADR-RES
[5] = system: SNB-75
[6] = system: OVCAR-3
[7] = system: SK-MEL-5
[8] = system: KM12
[9] = system: SNB-19
[10] = system: K562
[11] = system: SW-620
[12] = system: LOX IMVI
[13] = system: OVCAR-4
[14] = system: HCT-116
[15] = system: MCF7
[16] = system: DU-145
[17] = system: HCC 2998
[18] = system: HOP-92
[19] = system: NCI-H23
[20] = system: A549
[21] = system: M14
[22] = system: SF-295
[23] = system: Hs-578T
[24] = system: MDA-MB-231
[25] = system: NCI-H460
[26] = system: A498
[27] = system: T47D
[28] = system: TK-10
[29] = system: HT-29
[30] = system: MDA-MB-435
[31] = system: SR
[32] = system: MOLT-4
[33] = system: UACC-257
[34] = system: SN12C
[35] = system: UO-31
[36] = system: PC-3
[37] = system: RXF 393
[38] = system: MDA-N
[39] = system: HCT-15
[40] = system: OVCAR-8
[41] = system: COLO 205
[42] = system: CCRF-CEM
[43] = system: ACHN
[44] = system: U-251
[45] = system: SF-268
[46] = system: SK-MEL-2
[47] = system: 786-0
[48] = system: HOP-62
[49] = system: OVCAR-5
[50] = system: HL-60
[51] = system: EKVX
[52] = system: CAKI-1
[53] = system: SK-OV-3
[54] = system: IGROV-1
[55] = system: SF-539
[56] = system: RPMI-8226
[57] = system: UACC-62

C=CCNc1ccc(C)cc1
GI50 [1]: > 100 µM (inactive)
GI50 [2]: > 100 µM (inactive)
GI50 [3]: > 100 µM (inactive)
GI50 [4]: > 100 µM (inactive)
GI50 [5]: > 100 µM (inactive)
GI50 [6]: > 100 µM (inactive)
GI50 [7]: > 100 µM (inactive)
GI50 [8]: > 100 µM (inactive)
GI50 [9]: > 100 µM (inactive)
GI50 [10]: > 100 µM (inactive)
GI50 [11]: > 100 µM (inactive)
GI50 [12]: > 100 µM (inactive)
GI50 [13]: > 100 µM (inactive)
GI50 [14]: > 100 µM (inactive)
GI50 [15]: > 100 µM (inactive)
GI50 [16]: > 100 µM (inactive)
GI50 [17]: > 100 µM (inactive)
GI50 [18]: > 100 µM (inactive)
GI50 [19]: > 100 µM (inactive)
GI50 [20]: > 100 µM (inactive)
GI50 [21]: > 100 µM (inactive)
GI50 [22]: > 100 µM (inactive)
GI50 [23]: > 100 µM (inactive)
GI50 [24]: > 100 µM (inactive)
GI50 [25]: > 100 µM (inactive)
GI50 [26]: 3.82 µM (inactive)
GI50 [27]: > 100 µM (inactive)
GI50 [28]: > 100 µM (inactive)
GI50 [29]: > 100 µM (inactive)
GI50 [30]: > 100 µM (inactive)
GI50 [31]: > 100 µM (inactive)
GI50 [32]: > 100 µM (inactive)
GI50 [33]: > 100 µM (inactive)
GI50 [34]: > 100 µM (inactive)
GI50 [35]: 35 µM (inactive)
GI50 [36]: > 100 µM (inactive)
GI50 [37]: > 100 µM (inactive)
GI50 [38]: > 100 µM (inactive)
GI50 [39]: > 100 µM
GI50 [40]: > 100 µM (inactive)
GI50 [41]: > 100 µM (inactive)
GI50 [42]: > 100 µM (inactive)
GI50 [43]: > 100 µM (inactive)
GI50 [44]: > 100 µM (inactive)
GI50 [45]: > 100 µM (inactive)

O=C1CC(c2cccc(Br)c2)n2cccc21 (configuration not stated)
GI50 [46]: 29 µM (inactive)
GI50 [1]: 92.9 µM (inactive)
GI50 [2]: 47.2 µM (inactive)
GI50 [3]: > 100 µM (inactive)
GI50 [4]: > 100 µM (inactive)
GI50 [5]: 35.3 µM (inactive)
GI50 [6]: > 100 µM (inactive)
GI50 [8]: 46.2 µM (inactive)
GI50 [9]: > 100 µM (inactive)
GI50 [10]: 72.3 µM (inactive)
GI50 [11]: > 100 µM (inactive)
GI50 [12]: > 100 µM (inactive)
GI50 [13]: 88.9 µM (inactive)
GI50 [14]: > 100 µM (inactive)
GI50 [15]: 86.9 µM (inactive)
GI50 [16]: > 100 µM (inactive)
GI50 [17]: 54.7 µM (inactive)
GI50 [18]: 81.3 µM (inactive)
GI50 [19]: 63.5 µM (inactive)
GI50 [20]: 62.1 µM (inactive)
GI50 [21]: 80.7 µM (inactive)
GI50 [47]: > 100 µM (inactive)
GI50 [22]: > 100 µM (inactive)
GI50 [23]: 28.2 µM (inactive)
GI50 [24]: > 100 µM (inactive)
GI50 [26]: > 100 µM (inactive)
GI50 [27]: 63.4 µM (inactive)
GI50 [48]: > 100 µM (inactive)
GI50 [28]: > 100 µM (inactive)
GI50 [29]: 93.1 µM (inactive)
GI50 [30]: > 100 µM (inactive)
GI50 [31]: 51.2 µM (inactive)
GI50 [49]: > 100 µM (inactive)
GI50 [50]: 28.1 µM (inactive)
GI50 [32]: 40.1 µM (inactive)
GI50 [51]: > 100 µM (inactive)
GI50 [33]: > 100 µM (inactive)
GI50 [34]: > 100 µM (inactive)
GI50 [35]: 21.5 µM (inactive)
GI50 [52]: 44.6 µM (inactive)
GI50 [53]: > 100 µM (inactive)
GI50 [36]: 39.5 µM (inactive)
GI50 [37]: > 100 µM (inactive)
GI50 [39]: 92.9 µM
GI50 [54]: 57.3 µM (inactive)
GI50 [40]: > 100 µM (inactive)
GI50 [41]: > 100 µM (inactive)
GI50 [55]: > 100 µM (inactive)
GI50 [42]: > 100 µM (inactive)
GI50 [43]: 68.5 µM (inactive)
GI50 [56]: > 100 µM (inactive)
GI50 [44]: > 100 µM (inactive)
GI50 [45]: 67.8 µM (inactive)
GI50 [57]: > 100 µM (inactive)

CC(O)(C#N)CC(O)(C(F)(F)Cl)C(F)(F)Cl (configuration not stated)
GI50 [1]: > 10 µM (inactive)
GI50 [3]: > 10 µM (inactive)
GI50 [4]: > 10 µM (inactive)
GI50 [5]: > 10 µM (inactive)
GI50 [6]: > 10 µM (inactive)
GI50 [7]: > 10 µM (inactive)
GI50 [8]: > 10 µM (inactive)
GI50 [9]: > 10 µM (inactive)
GI50 [11]: > 10 µM (inactive)
GI50 [13]: > 10 µM (inactive)
GI50 [14]: > 10 µM (inactive)
GI50 [16]: > 10 µM (inactive)
GI50 [18]: > 10 µM (inactive)
GI50 [19]: > 10 µM (inactive)
GI50 [20]: > 10 µM (inactive)
GI50 [21]: > 10 µM (inactive)
GI50 [22]: > 10 µM (inactive)
GI50 [24]: > 10 µM (inactive)
GI50 [26]: > 10 µM (inactive)
GI50 [28]: > 10 µM (inactive)
GI50 [29]: > 10 µM (inactive)
GI50 [30]: > 10 µM (inactive)
GI50 [49]: > 10 µM (inactive)
GI50 [51]: > 10 µM (inactive)
GI50 [34]: > 10 µM (inactive)
GI50 [35]: > 10 µM (inactive)
GI50 [52]: > 10 µM (inactive)
GI50 [36]: > 10 µM (inactive)
GI50 [37]: > 10 µM (inactive)
GI50 [38]: > 10 µM (inactive)
GI50 [39]: > 10 µM
GI50 [54]: > 10 µM (inactive)
GI50 [40]: > 10 µM (inactive)
GI50 [41]: > 10 µM (inactive)
GI50 [55]: > 10 µM (inactive)
GI50 [43]: > 10 µM (inactive)
GI50 [44]: > 10 µM (inactive)
GI50 [45]: > 10 µM (inactive)
